Each compound was assayed against T1, Complement C1s subcomponent (Homo sapiens, UniProt P09871) (assay: concentration-response of complement C1s inhibitors – biochemical, dose response (AID 787)).
T1 sequence (P09871 whole entry): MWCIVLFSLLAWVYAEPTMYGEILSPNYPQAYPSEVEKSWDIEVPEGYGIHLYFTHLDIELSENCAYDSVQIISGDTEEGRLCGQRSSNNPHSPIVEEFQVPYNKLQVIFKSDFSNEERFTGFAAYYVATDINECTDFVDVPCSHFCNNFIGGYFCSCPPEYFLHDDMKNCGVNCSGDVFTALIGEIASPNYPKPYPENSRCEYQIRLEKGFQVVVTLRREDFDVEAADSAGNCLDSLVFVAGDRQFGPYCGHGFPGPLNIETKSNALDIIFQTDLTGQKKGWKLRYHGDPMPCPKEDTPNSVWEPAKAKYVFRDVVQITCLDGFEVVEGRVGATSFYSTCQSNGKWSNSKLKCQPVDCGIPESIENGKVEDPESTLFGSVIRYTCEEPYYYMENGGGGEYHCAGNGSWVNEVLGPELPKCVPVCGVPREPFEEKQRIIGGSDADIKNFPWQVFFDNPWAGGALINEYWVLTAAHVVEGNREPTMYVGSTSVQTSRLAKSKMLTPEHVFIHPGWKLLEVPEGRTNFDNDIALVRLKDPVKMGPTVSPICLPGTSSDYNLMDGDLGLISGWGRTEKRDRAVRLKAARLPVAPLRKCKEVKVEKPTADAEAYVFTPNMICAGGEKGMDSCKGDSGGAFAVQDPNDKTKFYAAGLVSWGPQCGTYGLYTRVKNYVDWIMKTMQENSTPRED

| SMILES | IC50 [µM] |
| --- | --- |
| COC(=O)c1ccccc1NC(=O)c1cc(-c2ccc(OC)c(OC)c2)on1 [2-[[5-(3,4-dimethoxyphenyl)isoxazole-3-carbonyl]amino]benzoic acid methyl ester] | > 50 |
| COc1ccc(C(=O)SC2=NCCS2)cc1OC [3,4-dimethoxybenzenecarbothioic acid S-(4,5-dihydrothiazol-2-yl) ester] | > 50 |
| O=C(Nc1nc(-c2cccs2)cs1)c1cccc(S(=O)(=O)N2CCCCCC2)c1 [3-(1-azepanylsulfonyl)-N-(4-thiophen-2-yl-2-thiazolyl)benzamide] | > 50 |
| Cc1cc(NC(=O)c2cccc(S(=O)(=O)N3CCCCCC3)c2)n(-c2ccccn2)n1 [3-(1-azepanylsulfonyl)-N-[5-methyl-2-(2-pyridinyl)-3-pyrazolyl]benzamide] | > 50 |
| CC1(C)C(c2ccccc2)=NC(c2cccnc2)N1O (centres undefined) [3-(1-hydroxy-5,5-dimethyl-4-phenyl-2H-imidazol-2-yl)pyridine] | > 50 |
| COc1ccccc1CN1CCCCC1c1cccnc1 (centres undefined) [3-(1-o-anisyl-2-piperidyl)pyridine] | > 50 |
| O=C(Nc1nccs1)c1cccc(S(=O)(=O)N2CCCCC2)c1 [3-(1-piperidinylsulfonyl)-N-(2-thiazolyl)benzamide] | > 50 |
| O=C(Nc1nc(-c2cccs2)cs1)c1cccc(S(=O)(=O)N2CCCCC2)c1 [3-(1-piperidinylsulfonyl)-N-(4-thiophen-2-yl-2-thiazolyl)benzamide] | > 50 |
| CCc1ccc(-c2cn(-c3nc(C)cc(C)n3)c(=N)o2)cc1 [3-(4,6-dimethyl-2-pyrimidinyl)-5-(4-ethylphenyl)-2-oxazolimine] | > 50 |
| CC(=O)N1CCN(C(=O)c2cccc(S(=O)(=O)Nc3ccc(C)cc3)c2)CC1 [3-(4-acetylpiperazine-1-carbonyl)-N-(4-methylphenyl)benzenesulfonamide] | > 50 |
| CC1CCN(S(=O)(=O)c2cccc(C(=O)Nc3nccs3)c2)CC1 [3-(4-methylpiperidin-1-yl)sulfonyl-N-(1,3-thiazol-2-yl)benzamide] | > 50 |
| CCC(C)N1CC23C=CC(O2)C(C(=O)OCc2ccccc2)C3C1=O (centres undefined) [3-sec-Butyl-4-oxo-10-oxa-3-aza-tricyclo[5.2.1.0*1,5*]dec-8-ene-6-carboxylic acid benzyl ester] | > 50 |
| CCn1c(CCn2ccnc2C)n[nH]c1=S [4-ethyl-5-[2-(2-methyl-1H-imidazol-1-yl)ethyl]-2,4-dihydro-3H-1,2,4-triazole-3-thione] | > 50 |
| CCc1c(C(=O)NCc2cnn(C)c2)csc1C [4-ethyl-5-methyl-N-[(1-methyl-1H-pyrazol-4-yl)methyl]-3-thiophenecarboxamide] | > 50 |
| CCOC(=O)c1sc(NC(=O)c2cc(S(=O)(=O)N3CCOCC3)ccc2C)nc1C [4-methyl-2-[(2-methyl-5-morpholinosulfonyl-benzoyl)amino]thiazole-5-carboxylic acid ethyl ester] | > 50 |
| Cc1ccc(C(=O)Nc2nccs2)cc1S(=O)(=O)N1CCCCC1 [4-methyl-3-(1-piperidinylsulfonyl)-N-(2-thiazolyl)benzamide] | > 50 |
| Cc1csc(NC(=O)c2ccc(C)c(S(=O)(=O)N3CCCCC3)c2)n1 [4-methyl-N-(4-methyl-1,3-thiazol-2-yl)-3-piperidin-1-ylsulfonyl-benzamide] | > 50 |
| CCc1ccc(C2CC(c3ccccc3Cl)Nc3nc(N)nn32)cc1 (centres undefined) [5-(2-chlorophenyl)-7-(4-ethylphenyl)-1,5,6,7-tetrahydro-[1,2,4]triazolo[1,5-a]pyrimidin-2-amine] | > 50 |
| Cc1ccc(-c2cc(C(=O)NCc3ccccn3)no2)cc1 [5-(4-methylphenyl)-N-(2-pyridinylmethyl)-3-isoxazolecarboxamide] | > 50 |
| Cc1ccccc1S(=O)(=O)Cc1ccc(C(=O)NCc2cccnc2)o1 [5-(o-tolylsulfonylmethyl)-N-(3-pyridylmethyl)-2-furamide] | > 50 |

Other lines, results leading:

| IC50 [µM] | SMILES |
| --- | --- |
| > 50 | O=C(Oc1ccc(-n2cnnn2)cc1)c1ccco1 [2-furancarboxylic acid [4-(1-tetrazolyl)phenyl] ester] |
| 4.88 | CSc1nc(-c2ccco2)nn1C(=O)c1ccco1 [2-furanyl-[3-(2-furanyl)-5-(methylthio)-1,2,4-triazol-1-yl]methanone] |
| > 50 | Cc1nc2scc(-c3cccs3)c2c(=O)o1 [2-methyl-5-(2-thienyl)thieno[2,3-d][1,3]oxazin-4-one] |
| > 50 | Cc1nc2sc(C(c3cccs3)N3CCN(Cc4ccccc4)CC3)c(O)n2n1 (centres undefined) [2-methyl-5-[[4-(phenylmethyl)-1-piperazinyl]-thiophen-2-ylmethyl]-6-thiazolo[3,2-b][1,2,4]triazolol] |
| > 50 | O=C(COC(=O)c1cnccn1)c1ccc(OC(=O)c2ccccc2)cc1 [2-pyrazinecarboxylic acid [2-(4-benzoyloxyphenyl)-2-oxoethyl] ester] |
| > 50 | CC(C)(C)c1cc(C(=O)NCc2ccccc2)ccn1 [2-tert-butyl-N-(phenylmethyl)-4-pyridinecarboxamide] |
| > 50 | COc1cc(OC)cc(C(=O)Nc2ncc3c(n2)CC(C)CC3=O)c1 (centres undefined) [3,5-dimethoxy-N-(7-methyl-5-oxidanylidene-7,8-dihydro-6H-quinazolin-2-yl)benzamide] |
| > 50 | CCCc1nc2ccccc2c(=O)n1-c1c(C)n(C)n(-c2ccccc2)c1=O [3-(1,5-dimethyl-3-oxo-2-phenyl-4-pyrazolyl)-2-propyl-4-quinazolinone] |
| > 50 | O=C(Nc1ccccn1)c1cccc(S(=O)(=O)N2CCCCC2)c1 [3-(1-piperidinylsulfonyl)-N-(2-pyridinyl)benzamide] |
| > 50 | O=C(NCc1cccs1)c1cccc(S(=O)(=O)N2CCCCC2)c1 [3-(1-piperidinylsulfonyl)-N-(thiophen-2-ylmethyl)benzamide] |
| 37.9 | O=c1c(-c2ccco2)[n+]([O-])c2ccccc2n1OCc1ccccn1 [3-(2-furanyl)-4-oxido-1-(2-pyridinylmethoxy)-2-quinoxalin-4-iumone] |
| > 50 | CC1CCN(S(=O)(=O)c2cccc(C(=O)NCc3cccs3)c2)CC1 [3-(4-Methyl-piperidine-1-sulfonyl)-N-thiophen-2-ylmethyl-benzamide] |
| > 50 | O=C(Nc1nccs1)c1cccc(S(=O)(=O)N2CCOCC2)c1 [3-(4-morpholinylsulfonyl)-N-(2-thiazolyl)benzamide] |
| > 50 | Cc1csc(N(C(=O)c2cccc(S(=O)(=O)N(C)C)c2)c2ccccc2)n1 [3-(dimethylsulfamoyl)-N-(4-methyl-1,3-thiazol-2-yl)-N-phenyl-benzamide] |
| > 50 | c1ccc(Cc2nn3c(COc4ccccc4)nnc3s2)cc1 [3-(phenoxymethyl)-6-(phenylmethyl)-[1,2,4]triazolo[3,4-b][1,3,4]thiadiazole] |
| > 50 | CCn1c(=O)c(C(C)=O)nc2ccccc21 [3-acetyl-1-ethyl-2-quinoxalinone] |
| > 50 | O=C(NC1=NCCS1)c1cccc(S(=O)(=O)N2CCCCC2)c1 [3-piperidinosulfonyl-N-(2-thiazolin-2-yl)benzamide] |
| > 50 | c1cncc(-c2nnc3n2N=C(c2cccs2)CS3)c1 [3-pyridin-3-yl-6-thiophen-2-yl-7H-[1,2,4]triazolo[3,4-b][1,3,4]thiadiazine] |
| > 50 | NC(=O)C1(N2CCCCC2)CCN(C(=O)Nc2ccccc2C(F)(F)F)CC1 [4-(1-piperidinyl)-N1-[2-(trifluoromethyl)phenyl]piperidine-1,4-dicarboxamide] |
| > 50 | COCCCNC(CC(=O)Nc1ccccc1C(=O)OC)C(=O)O (centres undefined) [4-(2-carbomethoxyanilino)-4-keto-2-(3-methoxypropylamino)butyric acid] |
| > 50 | CCOC(=O)N1CCN(C(=O)CN(c2cccc(C)c2)S(=O)(=O)c2ccc(C)cc2)CC1 [4-[2-(3-methyl-N-(4-methylphenyl)sulfonylanilino)-1-oxoethyl]-1-piperazinecarboxylic acid ethyl ester] |
| > 50 | CCCCn1c(-c2cc(Cl)ccc2OC)n[nH]c1=S [4-butyl-3-(5-chloro-2-methoxyphenyl)-1H-1,2,4-triazole-5-thione] |
| > 50 | CC(C)NS(=O)(=O)c1cc(C(=O)O)ccc1Cl [4-chloranyl-3-(propan-2-ylsulfamoyl)benzoic acid] |
| > 50 | O=C(Nc1nccs1)c1ccc(Cl)c(S(=O)(=O)N2CCOCC2)c1 [4-chloranyl-3-morpholin-4-ylsulfonyl-N-(1,3-thiazol-2-yl)benzamide] |
| > 50 | O=C(Nc1nccs1)c1ccc(Cl)c(S(=O)(=O)N2CCCCC2)c1 [4-chloranyl-3-piperidin-1-ylsulfonyl-N-(1,3-thiazol-2-yl)benzamide] |
| > 50 | O=C(Oc1ccc(Cl)cc1-n1c(O)ccc1O)c1ccco1 [4-chloro-2-(2,5-dioxo-1-pyrrolidinyl)phenyl 2-furoate] |
| > 50 | CC(=O)NC(=O)NC1CSCC1OC(C)=O (centres undefined) [4-{[(acetylamino)carbonyl]amino}tetrahydro-3-thienyl acetate] |
| > 50 | COc1ccc(CNC(=O)c2cc(-c3ccc(OC)c(OC)c3)on2)cc1 [5-(3,4-dimethoxyphenyl)-N-(4-methoxybenzyl)isoxazole-3-carboxamide] |
| > 50 | CC(C)NC(=O)c1cc(-c2ccc(Br)cc2)on1 [5-(4-bromophenyl)-N-isopropyl-isoxazole-3-carboxamide] |

Source: BindingDB's records for doi:10.7270/Q2MP51PC (Pcmd, 2008)
